In PMC5367011, “Sterols from Thai Marine Sponge Petrosia (Strongylophora) sp. and Their Cytotoxicity” (Marine Drugs, 2017):

Legend:
Type in all cases: cell-based
[1] = test system: HuCCA-1 (human chlolangiocarcinoma); assay: Cytotoxicity, MTT assay, HuCCA-1; conditions: for IC50: HuCC-A1, mean ± S.D. (n = 3), MTT assay
Description: (§1) In our study, several compounds (1–4, 6–8, 10, and 12–16) were evaluated for their cytotoxicity using a panel of human cancer cell lines, including MOLT-3 (acute lymphoblastic leukemia), HepG2 (hepatocarcinoma), A549 (human lung cancer), HuCCA-1 (human chlolangiocarcinoma), HeLa (cervical carcinoma), and MDA-MB-231 (hormone-independent breast cancer) as well as a normal cell line, MRC-5 (normal human embryonic lung fibroblasts).
(§2) The cytotoxic activity toward a panel of mammalian cancer cell lines (HepG2, A549, HuCCA-1, HeLa, MDA-MB-231) were tested using the 3-(4,5-dimethylthiazol-2-yl)-2,5-diphenyltetrazolium bromide (MTT) assay, while the activity toward MOLT-3 cancer cell line was performed by the 2,3-bis-(2-methoxy-4-nitro-5-sulphenyl)-(2H)-tetrazolium-5-carboxanilide (XTT) assay. Etoposide and doxorubicin were used as positive controls (Table 4).

[2] = test system: MOLT-3 (acute lymphoblastic leukemia); assay: Cytotoxicity, XTT assay, MOLT-3; conditions: Homo sapiens; for IC50: mean ± S.D. (n = 3), XTT assay
Description: as §1, §2

A549 (human lung cancer) = assay: Cytotoxicity, MTT assay, A549; conditions: for IC50: mean ± S.D. (n = 3), MTT assay
Description: as §1, §2

[3] = test system: MRC-5 (normal human embryonic lung fibroblasts); assay: Cytotoxicity toward normal cell line MRC-5; conditions: for IC50: MRC5, MRC-5 normal cell line, mean ± S.D. (n = 3)
Description: as §1

HepG2 (hepatocarcinoma) = assay: Cytotoxicity, MTT assay, HepG2; conditions: Homo sapiens; for IC50: HepG-2, mean ± S.D. (n = 3), MTT assay
Description: as §1, §2

[4] = test system: MDA-MB-231 (hormone-independent breast cancer); assay: Cytotoxicity, MTT assay, MDA-MB-231; conditions: Homo sapiens, mean ± S.D. (n = 3)
Description: as §1, §2

[5] = test system: HeLa (cervical carcinoma); assay: Cytotoxicity, MTT assay, HeLa; conditions: Homo sapiens, mean ± S.D. (n = 3)
Description: as §1, §2

Question: With `CC(CCC(C)(O)C1CCC2C3C(O)CC4CC(O)CCC4(C)C3CC(O)C21C)C1CC1C` (stereo not drawn) [Compound 1, 26,27-cyclo-24,27-dimethylcholestan-3α,7α,12β,20β-tetraol] as the compound, how does the IC50 [1] read?
Answer: 21.3 ± 1.84 µM

Question: And the IC50 [2]?
Answer: 17.9 ± 0.26 µM

Question: And the IC50 (A549 (human lung cancer))?
Answer: 20 ± 1.52 µM

Question: What about the IC50 [3] of the same compound?
Answer: 40.1 ± 1.23 µM

Question: What about the IC50 (HepG2 (hepatocarcinoma)) of the same compound?
Answer: 12.7 ± 1.67 µM

Question: With `C[C@H](CC[C@](C)(O)[C@H]1CC[C@@]2(O)[C@@H]3CC[C@H]4C[C@H](O)CC[C@]4(C)[C@H]3C[C@@H](O)[C@]12C)[C@@H]1C[C@H]1C` [Compound 2, 26,27-cyclo-24,27-dimethylcholestan-3α,12β,14,20β-tetraol] as the compound, how does the IC50 [1] read?
Answer: 37.9 ± 3.01 µM

Question: What about the IC50 [2] of the same compound?
Answer: 32.4 ± 1.08 µM

Question: What about the IC50 (A549 (human lung cancer)) of the same compound?
Answer: 38.59 ± 0.24 µM

Question: And the IC50 [3]?
Answer: 60.6 ± 12.8 µM

Question: And the IC50 (HepG2 (hepatocarcinoma))?
Answer: 44.8 ± 3.79 µM

Question: `C[C@H](CC[C@](C)(O)[C@H]1CCC2[C@@H]3[C@H](O)C=C4C[C@@H](O)CC[C@]4(C)[C@H]3C[C@@H](O)[C@@]21C)[C@@H]1C[C@H]1C` (stereo partly drawn) [Compound 3, 26,27-cyclo-24,27-dimethylcholest-5-ene-3β,7α,12β,20β-tetraol] was tested. Which IC50 [1] did it give?
Answer: 47.5 ± 6.96 µM

Question: And the inhibition at 27.17 µM ([2]; at 27.17 μM)?
Answer: 8%

Question: What about the inhibition at 54.35 µM (A549 (human lung cancer); at 54.35 μM) of the same compound?
Answer: 9%

Question: What about the inhibition at 54.35 µM ([3]; MRC5, MRC-5, at 54.35 μM) of the same compound?
Answer: 24.7%

Question: And the IC50 (HepG2 (hepatocarcinoma))?
Answer: 44.6 ± 9.76 µM

Question: Which results are given for `COC1(OC)CC[C@@]2(C)[C@@H](C[C@@H](O)[C@@H]3[C@@H]2C[C@@H](O)[C@@]2(C)[C@H]3CC[C@@H]2[C@@](C)(O)CC[C@@H](C)[C@@H]2C[C@H]2C)C1` [Compound 4, 26,27-cyclo-24,27-dimethylcholestan-3,3-dimethoxy-7α,12β,20β-triol]?
Answer: inhibition at 12.35 µM ([1]; HuCC-A1, at 12.35 μM): 0%; inhibition at 12.35 µM ([2]; at 12.35 μM): 0%; inhibition at 12.35 µM (A549 (human lung cancer); at 12.35 μM): 2%; inhibition at 24.7 µM ([3]; MRC5, MRC-5, at 24.70 μM): 5.45%; inhibition at 24.7 µM (HepG2 (hepatocarcinoma); HepG-2, at 24.70 μM): 20.3%

Question: Which IC50 [1] does the source give for `C[C@H](CC[C@](C)(O)[C@H]1CC[C@H]2[C@@H]3CC[C@H]4C[C@H](O)CC[C@]4(C)[C@H]3C[C@@H](O)[C@@]21C)[C@@H]1C[C@H]1C` [Compound 6, aragusterol I] here?
Answer: 37.06 ± 0.36 µM

Question: And the IC50 [2]?
Answer: 20.1 ± 0.52 µM

Question: And the IC50 (A549 (human lung cancer))?
Answer: 34.7 ± 17.7 µM

Question: And the IC50 [3]?
Answer: 63.4 ± 8.3 µM

Question: What about the IC50 (HepG2 (hepatocarcinoma)) of the same compound?
Answer: 54.9 ± 2.04 µM

Question: For `C[C@H](CC[C@](C)(O)[C@H]1CC[C@H]2[C@@H]3CC[C@H]4CC(=O)CC[C@]4(C)[C@H]3C[C@@H](O)[C@@]21C)[C@H]1C[C@@H]1C` [Compound 7, aragusterol B], which IC50 [4] is on record?
Answer: 27 ± 7.79 µM

Question: What about the IC50 [5] of the same compound?
Answer: 11.23 ± 0.05 µM

Question: And the IC50 [1]?
Answer: 25.1 ± 2.27 µM

Question: And the IC50 [2]?
Answer: 16.3 ± 18 µM

Question: What about the IC50 (A549 (human lung cancer)) of the same compound?
Answer: 23.6 ± 2 µM

Question: And the IC50 (HepG2 (hepatocarcinoma))?
Answer: 26.5 ± 5.32 µM

Question: What does the source list for `CC(CCC(C)(O)[C@H]1CC[C@H]2[C@@H]3[C@H](O)C[C@H]4CC(=O)CC[C@]4(C)[C@H]3C[C@@H](O)[C@]12C)C1CC1C` (stereo partly drawn) [Compound 8, xestokerol B]?
Answer: IC50 [1]: 103 ± 2.29 µM; inhibition at 108.7 µM ([2]; at 108.70 μM): 43%; IC50 (A549 (human lung cancer)): 32.6 ± 3.64 µM; IC50 [3]: 90.1 ± 6.88 µM; IC50 (HepG2 (hepatocarcinoma)): 18.2 ± 1.86 µM

Question: For `C[C@H](CC[C@@H](C)[C@H]1CC[C@H]2[C@@H]3C(=O)C=C4C[C@@H](O)CC[C@]4(C)[C@H]3CC[C@]12C)[C@@H]1C[C@H]1C` [Compound 10, 7-oxopetrosterol], which inhibition at 58.69 µM ([1]; HuCC-A1, at 58.69 μM) is on record?
Answer: 44%

Question: And the inhibition at 29.34 µM ([2]; at 29.34 μM)?
Answer: 2%

Question: What about the IC50 (A549 (human lung cancer)) of the same compound?
Answer: 52.1 ± 3.35 µM

Question: What about the IC50 [3] of the same compound?
Answer: 44.8 ± 1.36 µM

Question: And the IC50 (HepG2 (hepatocarcinoma))?
Answer: 49.8 ± 3.96 µM

Question: With `CC(C)CC=CC(C)(O)C1CCC2C3C(O)CC4CC(=O)CCC4(C)C3CC(O)C21C` (stereo not drawn) [Compound 12, 7α,12β,20β-trihydroxycholesta-22E-en-3-one] as the compound, how does the IC50 [1] read?
Answer: 66.1 ± 0.9 µM

Question: What about the IC50 [2] of the same compound?
Answer: 36.6 ± 1.11 µM

Question: And the IC50 (A549 (human lung cancer))?
Answer: 54.3 ± 3.84 µM

Question: What about the IC50 [3] of the same compound?
Answer: 76.9 ± 10.7 µM

Question: And the IC50 (HepG2 (hepatocarcinoma))?
Answer: 56.5 ± 2.15 µM

Question: `COC1(OC)CC[C@@]2(C)C(CC[C@H]3C4CC[C@H]([C@@](O)(CO)[C@H](O)C[C@@H](C)[C@@H]5C[C@H]5C)[C@@]4(C)[C@H](O)C[C@@H]32)C1` (stereo partly drawn) [Compound 13, 26,27-cyclo-24,27-dimethylcholestan-3,3-dimethoxy-12β,21,20α,22α-tetraol] was tested. Which IC50 [1] did it give?
Answer: 20.8 ± 2.32 µM

Question: What about the IC50 [2] of the same compound?
Answer: 14.9 ± 0.25 µM

Question: And the IC50 (A549 (human lung cancer))?
Answer: 17.9 ± 2.26 µM

Question: What about the IC50 [3] of the same compound?
Answer: 37.7 ± 10.7 µM

Question: What about the IC50 (HepG2 (hepatocarcinoma)) of the same compound?
Answer: 12.5 ± 0.84 µM

Question: What does the source list for `CC1CC1C(C)CC(O)C(O)(CO)[C@H]1CC[C@H]2[C@@H]3CC[C@H]4CC(=O)CC[C@]4(C)[C@H]3C[C@@H](O)[C@]12C` (stereo partly drawn) [Compound 14, xestokerol A]?
Answer: IC50 [1]: 34.4 ± 1.83 µM; IC50 [2]: 24.4 ± 3.11 µM; IC50 (A549 (human lung cancer)): 23.8 ± 1.87 µM; IC50 [3]: 65.9 ± 4.54 µM; IC50 (HepG2 (hepatocarcinoma)): 41.4 ± 3.24 µM

Question: What does the source list for `C[C@@H]1C[C@H]1[C@H](C)C[C@@H](O)[C@@]1([C@H]2CC[C@H]3[C@@H]4CC[C@H]5CC(=O)CC[C@]5(C)[C@H]4C[C@@H](O)[C@]23C)CO1` [Compound 15, aragusterol A]?
Answer: IC50 [4]: 18 ± 5.74 µM; IC50 [5]: 6.11 ± 0.02 µM; IC50 [1]: 37.6 ± 1.4 µM; IC50 [2]: 12.8 ± 0.98 µM; IC50 (A549 (human lung cancer)): 37.93 ± 0.07 µM; IC50 (HepG2 (hepatocarcinoma)): 7.1 ± 4.76 µM

Question: Which IC50 [1] does the source give for `COC1(OC)CC[C@@]2(C)C(CC[C@H]3C4CC[C@H]([C@]5([C@@H](O)C[C@@H](C)[C@@H]6C[C@H]6C)CO5)[C@@]4(C)[C@H](O)C[C@@H]32)C1` (stereo partly drawn) [Compound 16, aragusterolketal] here?
Answer: 34.6 ± 3.85 µM

Question: What about the IC50 [2] of the same compound?
Answer: 14.6 ± 0.36 µM

Question: What about the IC50 (A549 (human lung cancer)) of the same compound?
Answer: 29.1 ± 8.25 µM

Question: And the IC50 [3]?
Answer: 49.6 ± 6.67 µM

Question: And the IC50 (HepG2 (hepatocarcinoma))?
Answer: 11.3 ± 9.29 µM

Question: How did the IC50 [4] turn out when `COc1cccc2c1C(=O)c1c(O)c3c(c(O)c1C2=O)C[C@@](O)(C(=O)CO)C[C@@H]3O[C@H]1C[C@H](N)[C@H](O)[C@H](C)O1` [Doxorubicin, reference compound] was run?
Answer: 1.78 ± 0.54 µM

Question: And the IC50 [5]?
Answer: 0.17 ± 0.1 µM

Question: And the IC50 [1]?
Answer: 2.24 ± 0.15 µM

Question: And the IC50 (A549 (human lung cancer))?
Answer: 0.92 ± 0.06 µM

Question: And the inhibition at 50 µM ([3]; MRC5, MRC-5, at 50.00 μM)?
Answer: 24.9%

Question: What about the IC50 (HepG2 (hepatocarcinoma)) of the same compound?
Answer: 0.55 ± 0.12 µM

Question: Which IC50 [2] does the source give for `COc1cc([C@@H]2c3cc4c(cc3[C@@H](O[C@@H]3O[C@@H]5CO[C@@H](C)O[C@H]5[C@H](O)[C@H]3O)[C@H]3COC(=O)[C@H]23)OCO4)cc(OC)c1O` [Etoposide, reference compound] here?
Answer: 0.07 ± 0.005 µM

Question: What about the IC50 (HepG2 (hepatocarcinoma)) of the same compound?
Answer: 31.5 ± 15.6 µM
